# From patent US20040266623A1, “SYNERGISTIC QUINCLORAC HERBICIDAL COMPOSITIONS” (priority 2003, published 2004)
# Tests used:
# Test in all cases: Greenhouse pot test, postemergent spray, visual control rating converted to percent control
# Assay type in all cases: in vivo
# dandelion = settings: for Control (1-9) Dandelion: scale 1=no control, 9=death of plant
# Description: (§1) Pots of crabgrass, dandelion, white clover, and plantain grown in greenhouse soiless growth media were sprayed with a greenhouse pot sprayer at 43.46 gallons of spray solution/acre and allowed to stand in the greenhouse. Visual observation of the effects made by the herbicidal compositions on the plants in the test pots was recorded for control of crabgrass, dandelion, clover and plantain at 24 hours after treatment (HAT), 48 hours after treatment (HAT), 72 hours after treatment (HAT), 7 days after treatment (DAT), 14 days after treatment (DAT) and 21 days after treatment (DAT). A control rating scale of 1 to 9 was used to record the visual observation of the effect of the herbicidal composition on the plants over the time period of the tests. 1=no control, and 9=death of plant, with intervening numbers representing successive degrees of observed effectiveness of the herbicidal composition over time. The 1-9 control rating scale was converted to percent control in the test data charts that follow.
# (§2) The test protocol of S. R. Colby as set out in his article entitled “Calculating Synergistic and Antagonistic Responses of Herbicide Compositions,” received for publication Apr. 11, 1966, Contribution No. 3796 and Scientific Article No. 1271 of the Maryland Agricultural Experiment Station, Department pf Agronomy, University of Maryland was followed to evaluate the synergistic properties of the combination of quinclorac plus a herbicidal protox inhibitor, and a combination of quinclorac, plus a herbicidal protox inhibitor plus a herbicidal auxinic agent as compared with the individual herbicides, using Colby's formulas E=X+Y−XY/100 for a two herbicide combination, where E=the expected percent of inhibition of growth by herbicides, X=the percent inhibition of growth by herbicide A at p lb/A, and Y=the percent inhibition of growth by herbicide B at q lb/A, for a given combination of two herbicides. Colby's formula E=X+Y+Z−(XY+XZ+YZ)/100+XYZ/10,000, was used for the three-way herbicide combination evaluation, where E, X and Y are the same as in the two herbicide formula and Z=the percent inhibition of growth by the third herbicide.
# plantain = settings: for Control (1-9) Plantain: scale 1=no control, 9=death of plant
# Description: as §1, §2
# white clover = settings: for Control (1-9) Clover: scale 1=no control, 9=death of plant
# Description: as §1, §2
# crabgrass = settings: for Control (1-9) Crabgrass: scale 1=no control, 9=death of plant
# Description: as §1, §2
structure (smiles),measurement,setting,value
O=C(O)c1c(Cl)ccc2cc(Cl)cnc12 [Quinclorac @ 0.18 lbs/A],% Control Dandelion,"dandelion; Test 3, 7 DAT",22.2%
same,Control (1-9) Dandelion,"dandelion; Test 3, 7 DAT",2
same,% Control Dandelion,"dandelion; Test 3, 14 DAT",33.3%
same,Control (1-9) Dandelion,"dandelion; Test 3, 14 DAT",3
same,% Control Dandelion,"dandelion; Test 3, 21 DAT",33.3%
same,Control (1-9) Dandelion,"dandelion; Test 3, 21 DAT",3
same,% Control Dandelion,"dandelion; Test 3, 24 HAT",11.1%
same,Control (1-9) Dandelion,"dandelion; Test 3, 24 HAT",1
same,% Control Dandelion,"dandelion; Test 3, 72 HAT",22.2%
same,Control (1-9) Dandelion,"dandelion; Test 3, 72 HAT",2
same,% Control Dandelion,"dandelion; Test 4, 24 HAT",11.1%
same,Control (1-9) Dandelion,"dandelion; Test 4, 24 HAT",1
same,% Control Dandelion,"dandelion; Test 4, 72 HAT",22.2%
same,Control (1-9) Dandelion,"dandelion; Test 4, 72 HAT",2
same,% Control Plantain,"plantain; Test 3, 7 DAT",22.2%
same,Control (1-9) Plantain,"plantain; Test 3, 7 DAT",2
same,% Control Plantain,"plantain; Test 3, 14 DAT",33.3%
same,Control (1-9) Plantain,"plantain; Test 3, 14 DAT",3
same,% Control Plantain,"plantain; Test 3, 21 DAT",33.3%
same,Control (1-9) Plantain,"plantain; Test 3, 21 DAT",3
same,% Control Plantain,"plantain; Test 3, 24 HAT",11.1%
same,Control (1-9) Plantain,"plantain; Test 3, 24 HAT",1
same,% Control Plantain,"plantain; Test 3, 72 HAT",22.2%
same,Control (1-9) Plantain,"plantain; Test 3, 72 HAT",2
same,% Control Plantain,"plantain; Test 4, 24 HAT",11.1%
same,Control (1-9) Plantain,"plantain; Test 4, 24 HAT",1
same,% Control Plantain,"plantain; Test 4, 72 HAT",22.2%
same,Control (1-9) Plantain,"plantain; Test 4, 72 HAT",2
same,% Control Clover,"white clover; Test 3, 7 DAT",44.4%
same,Control (1-9) Clover,"white clover; Test 3, 7 DAT",4
same,% Control Clover,"white clover; Test 3, 14 DAT",44.4%
same,Control (1-9) Clover,"white clover; Test 3, 14 DAT",4
same,% Control Clover,"white clover; Test 3, 21 DAT",66.7%
same,Control (1-9) Clover,"white clover; Test 3, 21 DAT",6
same,% Control Clover,"white clover; Test 3, 24 HAT",11.1%
same,Control (1-9) Clover,"white clover; Test 3, 24 HAT",1
same,% Control Clover,"white clover; Test 3, 72 HAT",22.2%
same,Control (1-9) Clover,"white clover; Test 3, 72 HAT",2
same,% Control Clover,"white clover; Test 4, 24 HAT",11.1%
same,Control (1-9) Clover,"white clover; Test 4, 24 HAT",1
same,% Control Clover,"white clover; Test 4, 72 HAT",22.2%
same,Control (1-9) Clover,"white clover; Test 4, 72 HAT",2
same,% Control Crabgrass,"crabgrass; Test 3, 7 DAT",22.2%
same,Control (1-9) Crabgrass,"crabgrass; Test 3, 7 DAT",2
same,% Control Crabgrass,"crabgrass; Test 3, 14 DAT",33.3%
same,Control (1-9) Crabgrass,"crabgrass; Test 3, 14 DAT",3
same,% Control Crabgrass,"crabgrass; Test 3, 21 DAT",33.3%
same,Control (1-9) Crabgrass,"crabgrass; Test 3, 21 DAT",3
same,% Control Crabgrass,"crabgrass; Test 3, 24 HAT",11.1%
same,Control (1-9) Crabgrass,"crabgrass; Test 3, 24 HAT",1
same,% Control Crabgrass,"crabgrass; Test 3, 72 HAT",11.1%
same,Control (1-9) Crabgrass,"crabgrass; Test 3, 72 HAT",1
same,% Control Crabgrass,"crabgrass; Test 4, 24 HAT",11.1%
same,Control (1-9) Crabgrass,"crabgrass; Test 4, 24 HAT",1
same,% Control Crabgrass,"crabgrass; Test 4, 72 HAT",11.1%
same,Control (1-9) Crabgrass,"crabgrass; Test 4, 72 HAT",1
O=C(O)c1c(Cl)ccc2cc(Cl)cnc12 [Quinclorac @ 0.75 lbs/A],% Control Dandelion,"dandelion; Test 3, 7 DAT",22.2%
same,Control (1-9) Dandelion,"dandelion; Test 3, 7 DAT",2
same,% Control Dandelion,"dandelion; Test 3, 14 DAT",44.4%
same,Control (1-9) Dandelion,"dandelion; Test 3, 14 DAT",4
same,% Control Dandelion,"dandelion; Test 3, 21 DAT",33.3%
same,Control (1-9) Dandelion,"dandelion; Test 3, 21 DAT",3
same,% Control Dandelion,"dandelion; Test 3, 24 HAT",11.1%
same,Control (1-9) Dandelion,"dandelion; Test 3, 24 HAT",1
same,% Control Dandelion,"dandelion; Test 3, 72 HAT",22.2%
same,Control (1-9) Dandelion,"dandelion; Test 3, 72 HAT",2
same,% Control Dandelion,"dandelion; Test 4, 24 HAT",11.1%
same,Control (1-9) Dandelion,"dandelion; Test 4, 24 HAT",1
same,% Control Dandelion,"dandelion; Test 4, 72 HAT",22.2%
same,Control (1-9) Dandelion,"dandelion; Test 4, 72 HAT",2
same,% Control Plantain,"plantain; Test 3, 7 DAT",33.3%
same,Control (1-9) Plantain,"plantain; Test 3, 7 DAT",3
same,% Control Plantain,"plantain; Test 3, 14 DAT",55.6%
same,Control (1-9) Plantain,"plantain; Test 3, 14 DAT",5
same,% Control Plantain,"plantain; Test 3, 21 DAT",55.6%
same,Control (1-9) Plantain,"plantain; Test 3, 21 DAT",5
same,% Control Plantain,"plantain; Test 3, 24 HAT",11.1%
same,Control (1-9) Plantain,"plantain; Test 3, 24 HAT",1
same,% Control Plantain,"plantain; Test 3, 72 HAT",22.2%
same,Control (1-9) Plantain,"plantain; Test 3, 72 HAT",2
same,% Control Plantain,"plantain; Test 4, 24 HAT",11.1%
same,Control (1-9) Plantain,"plantain; Test 4, 24 HAT",1
same,% Control Plantain,"plantain; Test 4, 72 HAT",33.3%
same,Control (1-9) Plantain,"plantain; Test 4, 72 HAT",3
same,% Control Clover,"white clover; Test 3, 7 DAT",44.4%
same,Control (1-9) Clover,"white clover; Test 3, 7 DAT",4
same,% Control Clover,"white clover; Test 3, 14 DAT",55.6%
same,Control (1-9) Clover,"white clover; Test 3, 14 DAT",5
same,% Control Clover,"white clover; Test 3, 21 DAT",88.9%
same,Control (1-9) Clover,"white clover; Test 3, 21 DAT",8
same,% Control Clover,"white clover; Test 3, 24 HAT",11.1%
same,Control (1-9) Clover,"white clover; Test 3, 24 HAT",1
same,% Control Clover,"white clover; Test 3, 72 HAT",22.2%
same,Control (1-9) Clover,"white clover; Test 3, 72 HAT",2
same,% Control Clover,"white clover; Test 4, 24 HAT",11.1%
same,Control (1-9) Clover,"white clover; Test 4, 24 HAT",1
same,% Control Clover,"white clover; Test 4, 72 HAT",22.2%
same,Control (1-9) Clover,"white clover; Test 4, 72 HAT",2
same,% Control Crabgrass,"crabgrass; Test 3, 7 DAT",22.2%
same,Control (1-9) Crabgrass,"crabgrass; Test 3, 7 DAT",2
same,% Control Crabgrass,"crabgrass; Test 3, 14 DAT",66.7%
same,Control (1-9) Crabgrass,"crabgrass; Test 3, 14 DAT",6
same,% Control Crabgrass,"crabgrass; Test 3, 21 DAT",77.8%
same,Control (1-9) Crabgrass,"crabgrass; Test 3, 21 DAT",7
same,% Control Crabgrass,"crabgrass; Test 3, 24 HAT",11.1%
same,Control (1-9) Crabgrass,"crabgrass; Test 3, 24 HAT",1
same,% Control Crabgrass,"crabgrass; Test 3, 72 HAT",22.2%
same,Control (1-9) Crabgrass,"crabgrass; Test 3, 72 HAT",2
same,% Control Crabgrass,"crabgrass; Test 4, 24 HAT",11.1%
same,Control (1-9) Crabgrass,"crabgrass; Test 4, 24 HAT",1
same,% Control Crabgrass,"crabgrass; Test 4, 72 HAT",22.2%
same,Control (1-9) Crabgrass,"crabgrass; Test 4, 72 HAT",2
